Data on 30 molecules can be found in patent US20110105565A1, “WATER SOLUBLE SMALL MOLECULE INHIBITORS OF THE CYSTIC FIBROSIS TRANSMEMBRANE CONDUCTANCE REGULATOR” (THE REGENTS OF THE UNIVERSITY OF CALIFORNIA, priority 2008, published 2011).

The assay concerns the target human wildtype CFTR (Homo sapiens, UniProt P13569). Nature of the assay: Fluorescence cell-based assay of CFTR inhibition (YFP iodide influx, FRT cells). Details: expressed in transfected cells; host or cells: Fisher rat thyroid (FRT) cells. Particulars: for CFTR inhibitory activity (in words): structure-activity discussion.
Setting [1] is: Table 1, upper part, CFTR inhibitory activity, given as ranges, read-out: IC50.
Where [2] appears, read: Table 2 summary table, given as ranges, read-out: IC50.
Where [3] appears, read: Tables 1 and 2, read-out: IC50 (CFTR inhibition).
The mark [4] stands for this setting: Table 1, lower parts, given as ranges, read-out: IC50.

pIC50: −log10 of the molar value. Like-named read-outs stand apart in the source and are kept apart here.

Sequence of human wildtype CFTR (P13569 whole entry): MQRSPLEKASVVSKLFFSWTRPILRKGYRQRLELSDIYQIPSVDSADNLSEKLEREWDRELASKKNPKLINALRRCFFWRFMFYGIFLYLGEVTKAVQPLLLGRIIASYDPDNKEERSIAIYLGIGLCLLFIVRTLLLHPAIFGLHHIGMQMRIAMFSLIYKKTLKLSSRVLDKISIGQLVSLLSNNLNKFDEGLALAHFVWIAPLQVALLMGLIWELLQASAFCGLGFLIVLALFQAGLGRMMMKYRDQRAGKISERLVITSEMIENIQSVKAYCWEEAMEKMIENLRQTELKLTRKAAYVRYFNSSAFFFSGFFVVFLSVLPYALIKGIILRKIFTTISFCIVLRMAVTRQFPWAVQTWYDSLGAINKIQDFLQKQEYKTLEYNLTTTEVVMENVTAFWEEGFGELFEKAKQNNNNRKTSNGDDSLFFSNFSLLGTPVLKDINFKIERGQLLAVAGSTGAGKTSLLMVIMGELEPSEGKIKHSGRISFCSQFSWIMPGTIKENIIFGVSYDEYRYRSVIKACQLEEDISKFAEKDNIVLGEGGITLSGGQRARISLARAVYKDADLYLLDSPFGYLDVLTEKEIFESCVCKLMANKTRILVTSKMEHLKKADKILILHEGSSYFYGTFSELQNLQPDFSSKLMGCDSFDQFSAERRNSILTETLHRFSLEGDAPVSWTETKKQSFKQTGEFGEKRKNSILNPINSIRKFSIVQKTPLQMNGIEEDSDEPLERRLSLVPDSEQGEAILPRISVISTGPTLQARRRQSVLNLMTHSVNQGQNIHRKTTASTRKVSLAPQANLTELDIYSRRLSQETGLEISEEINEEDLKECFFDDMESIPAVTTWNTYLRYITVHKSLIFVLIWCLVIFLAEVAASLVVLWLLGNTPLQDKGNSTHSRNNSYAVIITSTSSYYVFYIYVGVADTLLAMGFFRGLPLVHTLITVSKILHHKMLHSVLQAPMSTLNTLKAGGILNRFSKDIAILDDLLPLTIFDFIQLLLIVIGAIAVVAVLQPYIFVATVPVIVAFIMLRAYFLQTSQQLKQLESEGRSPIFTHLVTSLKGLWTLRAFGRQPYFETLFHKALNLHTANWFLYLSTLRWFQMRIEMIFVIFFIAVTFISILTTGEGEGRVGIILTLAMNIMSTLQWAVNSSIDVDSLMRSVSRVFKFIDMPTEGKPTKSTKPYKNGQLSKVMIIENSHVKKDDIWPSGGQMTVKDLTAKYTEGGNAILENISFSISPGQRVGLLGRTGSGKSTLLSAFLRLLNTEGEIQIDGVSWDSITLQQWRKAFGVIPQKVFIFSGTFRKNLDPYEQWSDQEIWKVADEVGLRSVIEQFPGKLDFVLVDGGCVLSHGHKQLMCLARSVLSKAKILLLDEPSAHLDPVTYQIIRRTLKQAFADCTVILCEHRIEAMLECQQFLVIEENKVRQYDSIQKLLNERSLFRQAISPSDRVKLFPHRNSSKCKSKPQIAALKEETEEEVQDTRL
Experimental: CFTR inhibition by thiazolidinone derivative compounds was determined by a fluorescence cell-based assay utilizing doubly transfected cells expressing human wild-type CFTR and a yellow fluorescent protein (YFP) iodide sensor, as described (see, e.g., Galietta, et al., J. Physiol. 281:C1734-C1742 (2001)). Fisher rat thyroid (FRT) cells stably expressing wild-type human CFTR and YFP-H148Q were cultured on 96-well black-wall plates as described (see, e.g., Ma, et al., J. Clin. Invest. 110:1651-1658 (2002)). Cells in 96-well plates were washed three times, and then CFTR was activated by incubation for 15 minutes with an activating cocktail containing 10 μM forskolin, 20 μM apigenin, and 100 μM IBMX. Test compounds were added 5 minutes before assay of iodide influx in which cells were exposed to a 100 mM inwardly directed iodide gradient. YFP fluorescence was recorded for 2 seconds before and 12 seconds after creation of the iodide gradient. Initial rates of iodide influx were computed from the time course of decreasing fluorescence after the iodide gradient.
CFTR-facilitated iodide influx following extracellular iodide addition results in quenching of cytoplasmic YFP fluorescence.

For orientation: pIC50 means the negative decadic logarithm of the IC50, by convention in mol/L. With `O=C(O)c1cc(/C=C2\SC(=S)N(c3cccc(C(F)(F)F)c3)C2=O)ccc1O` [Compound 7, (Z)-2-hydroxy-5-((4-oxo-2-thioxo-3-(3-(trifluoromethyl)phenyl)thiazolidin-5-ylidene)methyl)benzoic acid], the pIC50 is 5.70 to 6.00 under setting [1] and 5.70 to 6.00 under setting [2].

For `O=C(O)c1ccc(/C=C2\SC(=S)N(c3ccc(F)c(C(F)(F)F)c3)C2=O)cc1` [Compound 8, (Z)-4-((3-(4-fluoro-3-(trifluoromethyl)phenyl)-4-oxo-2-thioxothiazolidin-5 ylidene)methyl)benzoic acid], the pIC50 under setting [1] was 5.70 to 6.00 and the pIC50 under setting [2] was 5.70 to 6.00.

Turning to `O=C(O)c1cccc(/C=C2\SC(=S)N(c3cccc(C(F)(F)F)c3)C2=O)c1` [Compound 9, (Z)-3-((4-oxo-2-thioxo-3-(3-(trifluoromethyl)phenyl)thiazolidin-5-ylidene)methyl)benzoic acid], the pIC50 reads like this: under setting [1], 5.70 to 6.00; under setting [2], 5.70 to 6.00.

As to `O=C(O)COc1ccc(/C=C2\SC(=S)N(c3cccc(C(F)(F)F)c3)C2=O)cc1` [Compound 10, (Z)-2-(4-((4-oxo-2-thioxo-3-(3-(trifluoromethyl)phenyl)thiazolidin-5-ylidene)methyl)phenoxy) acetic acid], the pIC50 is, setting by setting: under setting [1], 5.52 to 5.70; under setting [2], 5.52 to 5.70; under setting [3], 5.59.

As for `O=C(O)c1cccc(/C=C2\SC(=S)N(c3ccc(F)c(C(F)(F)F)c3)C2=O)c1` [Compound 11, (Z)-3-((3-(4-fluoro-3-(trifluoromethyl)phenyl)-4-oxo-2-thioxothiazolidin-5-ylidene)methyl)benzoic acid], the pIC50 was 5.00 to 5.30 under setting [1] and 5.00 to 5.30 under setting [2].

`Cc1cccc(N2C(=O)/C(=C/c3ccc(C(=O)O)cc3)SC2=S)c1` [Compound 12, (Z)-4-((4-oxo-2-thioxo-3-m-tolylthiazolidin-5-ylidene)methyl)benzoic acid]: the pIC50 is, setting by setting: under setting [1], 5.00 to 5.30; under setting [2], 5.00 to 5.30.

For the molecule `Cc1cccc(N2C(=O)/C(=C/c3ccc(C(=O)O)cc3)SC2=S)c1C` [Compound 13, (Z)-4-((3-(2,3-dimethylphenyl)-4-oxo-2-thioxothiazolidin-5-ylidene)methyl)benzoic acid], the pIC50 under setting [1] was 5.00 to 5.30 and the pIC50 under setting [2] is 5.00 to 5.30.

For the molecule `O=C1/C(=C/c2cc(Br)c(O)c(Br)c2)SC(=S)N1c1cccc(C(F)(F)F)c1` [Compound 14, (Z)-5-(3,5-dibromo-4-hydroxybenzylidene)-2-thioxo-3-(3-(trifluoromethyl)phenyl) thiazolidin-4-one], the “CFTR inhibitory activity (in words)” value is given as “modest inhibition activity”. Besides, the pIC50 under setting [1] was 5.00 to 5.30. Besides, under setting [2], the pIC50 is 5.00 to 5.30.

Regarding `O=C(O)c1ccc(/C=C2\SC(=S)N(c3cccc(C(F)(F)F)c3)C2=O)c(O)c1` [Compound 16, (Z)-3-hydroxy-4-((4-oxo-2-thioxo-3-(3-(trifluoromethyl)phenyl)thiazolidin-5-ylidene)methyl)benzoic acid], the pIC50 is 5.05 to 5.15 under setting [1] and 5.05 to 5.15 under setting [2].

`O=C1/C(=C/c2cc(O)c(O)c(O)c2)SC(=S)N1c1cccc(C(F)(F)F)c1` [Compound 19, (Z)-2-thioxo-3-(3-(trifluoromethyl)phenyl)-5-(3,4,5-trihydroxybenzylidene) thiazolidin-4-one]: the “CFTR inhibitory activity (in words)” value is “low activity”. Besides, the pIC50 under setting [1] is 4.70 to 5.00. For the same molecule, under setting [2], the pIC50 was 4.70 to 5.00.

With `O=C(O)c1ccc(/C=C2\SC(=S)N(c3ccccc3C(F)(F)F)C2=O)cc1` [Compound 20, (Z)-4-((4-oxo-2-thioxo-3-(2-(trifluoromethyl)phenyl)thiazolidin-5-ylidene)methyl)benzoic acid], the pIC50 under setting [1] is 4.70 to 5.00 and the pIC50 under setting [2] is 4.70 to 5.00.

Regarding `O=C(O)c1cccc(/C=C2\SC(=S)N(c3ccc(C(F)(F)F)cc3)C2=O)c1` [Compound 21, (Z)-3-((4-oxo-2-thioxo-3-(4-(trifluoromethyl)phenyl)thiazolidin-5-ylidene)methyl)benzoic acid], the pIC50 is 4.70 to 5.00 under setting [1] and 4.70 to 5.00 under setting [2].

Consider `O=C(O)c1cc(/C=C2\SC(=S)N(c3ccccc3C(F)(F)F)C2=O)ccc1O` [Compound 22, (Z)-2-hydroxy-5-((4-oxo-2-thioxo-3-(2-(trifluoromethyl)phenyl)thiazolidin-5-ylidene)methyl)benzoic acid], for which the pIC50 runs as follows: under setting [1], 4.70 to 5.00; under setting [2], 4.70 to 5.00.

On to `O=C(O)c1ccc(/C=C2\SC(=S)N(c3cc(C(F)(F)F)cc(C(F)(F)F)c3)C2=O)cc1` [Compound 23, (Z)-4-((3-(3,5-bis(trifluoromethyl)phenyl)-4-oxo-2-thioxothiazolidin-5-ylidene)methyl)benzoic acid], for which the pIC50 is, setting by setting: under setting [1], 4.70 to 5.00; under setting [2], 4.70 to 5.00.

In the case of `O=C(O)c1ccc(/C=C2\SC(=S)N(c3ccc(Cl)c(C(F)(F)F)c3)C2=O)cc1` [Compound 24, (Z)-4-((3-(4-chloro-3-(trifluoromethyl)phenyl)-4-oxo-2-thioxothiazolidin-5-ylidene)methyl)benzoic acid], the pIC50 by setting is: under setting [1], 4.70 to 5.00; under setting [2], 4.70 to 5.00.

On to `O=C(O)c1ccc(/C=C2\SC(=S)N(c3ccc(C(F)(F)F)cc3)C2=O)cc1` [Compound 25, (Z)-4-((4-oxo-2-thioxo-3-(4-(trifluoromethyl)phenyl)thiazolidin-5-ylidene)methyl)benzoic acid], for which the pIC50 is 4.70 to 5.00 under setting [1] and 4.70 to 5.00 under setting [2].

Turning to `O=C(O)c1ccccc1/C=C1\SC(=S)N(c2cccc(C(F)(F)F)c2)C1=O` [Compound 26, (Z)-2-((4-oxo-2-thioxo-3-(3-(trifluoromethyl)phenyl)thiazolidin-5-ylidene)methyl)benzoic acid], the pIC50 reads like this: under setting [1], 4.70 to 5.00; under setting [2], 4.70 to 5.00.

`O=C(O)c1ccccc1/C=C1\SC(=S)N(c2ccccc2C(F)(F)F)C1=O` [Compound 27, (Z)-2-((4-oxo-2-thioxo-3-(2-(trifluoromethyl)phenyl)thiazolidin-5-ylidene)methyl)benzoic acid]: the pIC50 by setting is: under setting [1], 4.70 to 5.00; under setting [2], 4.70 to 5.00.

In the case of `O=C(O)c1cccc(/C=C2\SC(=S)N(c3ccccc3C(F)(F)F)C2=O)c1` [Compound 28, (Z)-3-((4-oxo-2-thioxo-3-(2-(trifluoromethyl)phenyl)thiazolidin-5-ylidene)methyl)benzoic acid], the pIC50 was 4.70 to 5.00 under setting [1] and 4.70 to 5.00 under setting [2].

For `O=C(O)c1ccccc1/C=C1\SC(=S)N(c2ccc(C(F)(F)F)cc2)C1=O` [Compound 29, (Z)-2-((4-oxo-2-thioxo-3-(4-(trifluoromethyl)phenyl)thiazolidin-5-ylidene)methyl)benzoic acid], the pIC50 is 4.70 to 5.00 under setting [1] and 4.70 to 5.00 under setting [2].

Take `O=C1/C(=C/c2ccc(O)cc2)SC(=S)N1c1cccc(C(F)(F)F)c1` [Compound 31, (Z)-5-(4-hydroxybenzylidene)-2-thioxo-3-(3-(trifluoromethyl)phenyl) thiazolidin-4-one]: the “CFTR inhibitory activity (in words)” value is reported as “low activity”. The pIC50 under setting [1] was 4.52 to 4.70. Moreover, the pIC50 under setting [2] was 4.52 to 4.70.

Take `O=C(O)c1cc(/C=C2\SC(=S)N(c3ccc(C(F)(F)F)cc3)C2=O)ccc1O` [Compound 32, (Z)-2-hydroxy-5-((4-oxo-2-thioxo-3-(4-(trifluoromethyl)phenyl)thiazolidin-5-ylidene)methyl)benzoic acid]: the pIC50 is, setting by setting: under setting [1], 4.52 to 4.70; under setting [2], 4.52 to 4.70.

`O=C1/C(=C/c2ccncc2)SC(=S)N1c1cccc(C(F)(F)F)c1` [Compound 33, (Z)-5-(pyridin-4-ylmethylene)-2-thioxo-3-(3-(trifluoromethyl)phenyl) thiazolidin-4-one]: the “CFTR inhibitory activity (in words)” value is “inactive”. Further, the pIC50 under setting [2] is 4.52 to 4.70. The pIC50 under setting [3] was 4.52 to 4.70.

As for `O=C1/C(=C/c2ccc(O)c(O)c2O)SC(=S)N1c1cccc(C(F)(F)F)c1` [Compound 34, (Z)-2-thioxo-3-(3-(trifluoromethyl)phenyl)-5-(2,3,4-trihydroxybenzylidene) thiazolidin-4-one], the “CFTR inhibitory activity (in words)” value is listed as “low activity”. Moreover, the pIC50 under setting [1] is 4.52 to 4.70. Besides, the pIC50 under setting [2] is 4.52 to 4.70.

As for `O=C1/C(=C/c2ccc(S(=O)(=O)[O-])cc2)SC(=S)N1c1cccc(C(F)(F)F)c1.[Na+]` [Compound 35, sodium (Z)-4-((4-oxo-2-thioxo-3-(3-(trifluoromethyl)phenyl)thiazolidin-5-ylidene)methyl) benzenesulfonate], the “CFTR inhibitory activity (in words)” value was “inactive”. In addition, under setting [1], the pIC50 is 4.52 to 4.70. Moreover, the negative logarithm of the IC50 (pIC50) under setting [2] is 4.52 to 4.70.

For the molecule `O=C(O)COc1cccc(/C=C2\SC(=S)N(c3cccc(C(F)(F)F)c3)C2=O)c1` [Compound 36, (Z)-2-(3-((4-oxo-2-thioxo-3-(3-(trifluoromethyl)phenyl)thiazolidin-5-ylidene)methyl)phenoxy) acetic acid], the pIC50 is 4.52 to 4.70 under setting [1] and 4.52 to 4.70 under setting [2].

Consider `O=C1S/C(=C\c2ccc(-c3nn[nH]n3)cc2)C(=O)N1c1cccc(C(F)(F)F)c1` [Compound 48, (Z)-5-(4-(1H-tetrazol-5-yl)benzylidene)-3-(3-(trifluoromethyl)phenyl) thiazolidine-2,4-dione], for which the pIC50 was 4.70 to 5.00 under setting [4] and 4.70 to 5.00 under setting [2].

On to `O=C(O)c1ccc(SC2CC(=O)N(c3cccc(C(F)(F)F)c3)C2=O)cc1` (stereo not shown) [Compound 50, 4-(2,5-dioxo-1-(3-(trifluoromethyl)phenyl)pyrrolidin-3-ylthio)benzoic acid], for which the pIC50 under setting [4] was 5.00 to 5.30, the pIC50 under setting [2] was 5.00 to 5.30 and the pIC50 under setting [3] was roughly 5.15.

With `O=C(O)c1ccc(NC(=S)C2SC(=S)N(c3cccc(C(F)(F)F)c3)C2=O)cc1` (stereo not shown) [Compound 51, 4-(4-oxo-2-thioxo-3-(3-(trifluoromethyl)phenyl)thiazolidine-5-carbothioamido)benzoic acid], the pIC50 was 5.00 to 5.30 under setting [4] and 5.00 to 5.30 under setting [2].

As to `O=C(O)c1ccc(CC2SC(=S)N(c3cccc(C(F)(F)F)c3)C2=O)cc1` (stereo not shown) [Compound 56], the “CFTR inhibitory activity (in words)” value was “inactive”.
